For data set [1], the system named is Mus musculus. Nature of the data set: Analgesic activity in Mus musculus Wistar albino (mouse) at 20 mg/kg, po after 3 hr by tail-flick test (reference value: 4 +/- 0.91%). It is filed as functional.
Data set [2] concerns Rattus norvegicus. Nature of the data set: Anti-inflammatory activity in Rattus norvegicus (rat) assessed as inhibition of carrageenan-induced paw edema at 20 mg/kg, po measured at 1 hr post carrageenan-challenge (reference value: 6.1 +/- 0.27%). It is filed as functional. In general terms: The carrageenan paw model is a standard test of acute inflammation.
Data set [3] concerns Mus musculus. The data set can be described thus: Analgesic activity in Mus musculus Wistar albino (mouse) at 20 mg/kg, po after 1 hr by tail-flick test (reference value: 6 +/- 0.49%). It is filed as functional. On the technique in general: Thermal pain tests record how soon the animal reacts.
Data set [4] relates to Mus musculus. The data set can be described thus: Analgesic activity in Mus musculus Wistar albino (mouse) at 20 mg/kg, po after 2 hr by tail-flick test (reference value: 4 +/- 0.59%). It is filed as functional.
Data set [5] concerns Rattus norvegicus. Nature of the data set: Anti-inflammatory activity in Rattus norvegicus (rat) assessed as inhibition of carrageenan-induced paw edema at 10 mg/kg, po measured at 1 hr post carrageenan-challenge (reference value: 6.1 +/- 0.27%). It is filed as functional.
The subject of data set [6] is Mus musculus. The data set can be described thus: Analgesic activity in Mus musculus Wistar albino (mouse) at 10 mg/kg, po after 1 hr by tail-flick test (reference value: 6 +/- 0.49%). It is filed as functional.
Data set [7] deals with Mus musculus. Nature of the data set: Analgesic activity in Mus musculus Wistar albino (mouse) at 10 mg/kg, po after 3 hr by tail-flick test (reference value: 4 +/- 0.91%). It is filed as functional.
Data set [8] deals with Mus musculus. Nature of the data set: Analgesic activity in Mus musculus Wistar albino (mouse) at 20 mg/kg, po after 30 min by tail-flick test (reference value: 2 +/- 0.35%). It is filed as functional.
Data set [9] concerns Rattus norvegicus. The data set can be described thus: Gastrointestinal toxicity in Rattus norvegicus Wistar albino (rat) assessed as ulcer index at 20 mg/kg, ip administered QD for 3 days measured on day 4 (reference value: 0.15 +/- 0.32). It is filed as organism-based. Particulars: in vivo, 72 h. Details: dose 20 mg/kg, route intraperitoneal.
Data set [10] has as its system Rattus norvegicus. The data set can be described thus: Anti-inflammatory activity in Rattus norvegicus (rat) assessed as inhibition of carrageenan-induced paw edema at 10 mg/kg, po measured at 30 min post carrageenan-challenge (reference value: 5.1 +/- 0.29%). It is filed as functional. The settings on record: 0.5 h.
Data set [11] relates to Rattus norvegicus. The data set can be described thus: Anti-inflammatory activity in Rattus norvegicus (rat) assessed as inhibition of carrageenan-induced paw edema at 20 mg/kg, po measured at 2 hr post carrageenan-challenge (reference value: 5.7+/- 0.32%). It is filed as functional.
Data set [12] deals with Mus musculus. Nature of the data set: Analgesic activity in Mus musculus Wistar albino (mouse) at 10 mg/kg, po after 2 hr by tail-flick test (reference value: 4 +/- 0.59%). It is filed as functional.
The test system of data set [13] is Mus musculus. The data set can be described thus: Analgesic activity in Mus musculus Wistar albino (mouse) at 10 mg/kg, po after 30 min by tail-flick test (reference value: 2 +/- 0.35%). It is filed as functional.
The test system of data set [14] is Rattus norvegicus. The data set can be described thus: Anti-inflammatory activity in Rattus norvegicus (rat) assessed as inhibition of carrageenan-induced paw edema at 10 mg/kg, po measured at 2 hr post carrageenan-challenge (reference value: 5.7+/- 0.32%). It is filed as functional.
Data set [15] relates to Rattus norvegicus. Nature of the data set: Anti-inflammatory activity in Rattus norvegicus (rat) assessed as inhibition of carrageenan-induced paw edema at 20 mg/kg, po measured at 3 hr post carrageenan-challenge (reference value: 3.2 +/- 0.93%). It is filed as functional.
Data set [16] has as its system Rattus norvegicus. The data set can be described thus: Anti-inflammatory activity in Rattus norvegicus (rat) assessed as inhibition of carrageenan-induced paw edema at 20 mg/kg, po measured at 30 min post carrageenan-challenge (reference value: 5.1 +/- 0.29%). It is filed as functional. The settings on record: 0.5 h.
Data set [17] concerns Rattus norvegicus. The data set can be described thus: Anti-inflammatory activity in Rattus norvegicus (rat) assessed as inhibition of carrageenan-induced paw edema at 10 mg/kg, po measured at 3 hr post carrageenan-challenge (reference value: 3.2 +/- 0.93%). It is filed as functional.

By inhibition in vivo is commonly meant how much of the control response was suppressed. Turning to `COc1ccc(/C=N/Nc2nc3ccccc3c(=O)n2Cc2ccccc2)cc1`, the Activity was 37% in data set [1]; 52% in data set [3]; 56% in [4]; 40% in [6]; 32% in data set [7]; 49% in [8]. The Activity in data set [12] turned out to be 44%; in data set [13], 39%. The inhibition in vivo at 20 mg/kg in [2] was 40%; in data set [11], 44%; in [15], 30%; in data set [16], 35%. Further, the inhibition in vivo at 10 mg/kg in data set [5] stood at 30%; in data set [10], 28%; in data set [14], 37%; in data set [17], 25%. Moreover, in data set [9], the UI was determined as 0.83.

`O=c1c2ccccc2nc(N/N=C/c2ccccc2Cl)n1Cc1ccccc1`: the Activity in data set [1] is 35%; in data set [3], 49%; in [4], 53%; in [6], 37%; in data set [7], 29%; in data set [8], 46%. Besides, the Activity came out at 41% in data set [12] and 34% in [13]. Moreover, the inhibition in vivo at 20 mg/kg turned out to be 38% in [2], 42% in data set [11], 31% in data set [15] and 38% in data set [16]. In addition, the inhibition in vivo at 10 mg/kg in data set [5] is 32%; in data set [10], 30%; in data set [14] it was 35%; in [17], 26%. Also, in [9], the UI was found to be 0.86.

For `C/C(=N\Nc1nc2ccccc2c(=O)n1Cc1ccccc1)c1ccccc1`, the Activity in data set [1] is given as 37%; in [3], 62%; in data set [4], 69%; in [6], 47%; in data set [7], 30%; in data set [8], 57%. Moreover, the Activity is reported as 57% in data set [12] and 45% in data set [13]. Moreover, the inhibition in vivo at 20 mg/kg in data set [2] turned out to be 53%; in data set [11], 58%; in [15] it was 33%; in [16], 48%. The inhibition in vivo at 10 mg/kg in [5] turned out to be 41%; in [10], 40%; in [14], 46%; in [17], 27%. Further, in data set [9], the UI worked out at 0.6.

As to `CCC(CC)=NNc1nc2ccccc2c(=O)n1Cc1ccccc1`, the Activity in [1] amounted to 50%; in [3], 79%; in [4] it was 81%; in [6], 69%; in [7], 41%; in [8], 74%. Also, the Activity is on record as 72% in data set [12] and 63% in data set [13]. Besides, the inhibition in vivo at 20 mg/kg in data set [2] worked out at 68%; in data set [11] it was 70%; in data set [15], 41%; in data set [16], 59%. The inhibition in vivo at 10 mg/kg in data set [5] worked out at 53%; in data set [10] it was 49%; in [14], 56%; in [17], 30%. Moreover, the UI in data set [9] is 0.5.

Values taken from ChEMBL document CHEMBL3046395, “Synthesis and pharmacological investigation of novel 3-(benzyl)-2-substituted amino-3H-quinazolin-4-ones as analgesic and anti-inflammatory agents” (Med Chem Res, 2008).
